Laboratory results taken from ChEMBL document CHEMBL1151055, “A comparative SAR and computer modeling study of benzisothiazolone, mechanism-based inhibitors with porcine pancreatic and human leukocyte elastase” (Bioorg Med Chem Lett, 1996).

Legend:
[1] = biological target: T1, Neutrophil elastase (Homo sapiens) (UniProt P08246); assay: Irreversible inhibitory activity against human leukocyte elastase
T1 sequence (whole entry): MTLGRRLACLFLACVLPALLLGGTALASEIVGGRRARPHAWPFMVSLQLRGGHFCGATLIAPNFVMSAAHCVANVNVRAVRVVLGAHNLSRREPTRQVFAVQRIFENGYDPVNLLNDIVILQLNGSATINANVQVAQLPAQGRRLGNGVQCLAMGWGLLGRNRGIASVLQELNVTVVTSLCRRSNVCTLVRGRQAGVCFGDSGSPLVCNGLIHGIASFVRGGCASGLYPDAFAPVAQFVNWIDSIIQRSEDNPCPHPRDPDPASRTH

[2] = biological target: T2, Chymotrypsin-like elastase family member 2A (Sus scrofa) (UniProt P08419); assay: Irreversible inhibitory activity against porcine pancreatic elastase
T2 sequence (whole entry): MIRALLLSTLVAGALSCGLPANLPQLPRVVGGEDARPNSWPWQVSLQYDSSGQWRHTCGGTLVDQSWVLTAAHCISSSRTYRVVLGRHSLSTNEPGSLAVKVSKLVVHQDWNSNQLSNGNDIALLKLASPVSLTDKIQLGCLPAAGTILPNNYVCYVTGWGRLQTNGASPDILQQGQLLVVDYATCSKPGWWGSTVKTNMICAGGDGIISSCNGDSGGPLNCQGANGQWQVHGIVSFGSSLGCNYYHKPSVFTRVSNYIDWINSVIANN

COC(=O)CCC(=O)N[C@@H](C)C(=O)N[C@@H](C)C(=O)N1CCC[C@@H]1C(=O)N[C@H](C(=O)CCl)C(C)C
k on [1]: 3150 M⁻¹ s⁻¹ | k on [2]: 830 M⁻¹ s⁻¹
